Laboratory results taken from PubChem BioAssay AID1745844 (Carcinogenic Potency Database (CPDB), 2022).
Active and inactive are the calls of the source. How the calls were made is not given here.

Tested on: rodent lifetime carcinogenesis bioassay, tumor incidence TD50
Assay: carcinogenic potency in animals, long-term in vivo studies, CPDB compilation (AID 1745844)
Settings: in drinking water

Compound `O=C1OC(O)C(C(Cl)Cl)=C1Cl` (configuration not stated) has a TD50 (rat, strain Wistar, females, site: adrenal gland, lesion: cortical adenoma, dosed 104 weeks, study length 104 weeks) of 10.6 mg/kg/day, a TD50 (rat, strain Wistar, females, site: all sites, lesion: lymphoma and leukemia, combined, dosed 104 weeks, study length 104 weeks) of 41.5 mg/kg/day and a TD50 (rat, strain Wistar, females, site: liver, lesion: cholangioadenoma/carcinoma, dosed 104 weeks, study length 104 weeks) of 2.73 mg/kg/day. For the same compound, the TD50 (rat, strain Wistar, females, site: liver, lesion: cholangiocarcinoma, dosed 104 weeks, study length 104 weeks) was 122 mg/kg/day, the TD50 (rat, strain Wistar, females, site: liver, lesion: cholangioma, dosed 104 weeks, study length 104 weeks) was 2.73 mg/kg/day and the TD50 (rat, strain Wistar, females, site: liver, lesion: hepatocellular adenoma, dosed 104 weeks, study length 104 weeks) was 16 mg/kg/day. For the same compound, the TD50 (rat, strain Wistar, females, site: liver, lesion: hepatocellular tumor, dosed 104 weeks, study length 104 weeks) was 14.9 mg/kg/day, the TD50 (rat, strain Wistar, females, site: mammary gland, lesion: adenocarcinoma, dosed 104 weeks, study length 104 weeks) was 14 mg/kg/day and the TD50 (rat, strain Wistar, females, site: mammary gland, lesion: fibroadenoma, dosed 104 weeks, study length 104 weeks) was 5.13 mg/kg/day. The TD50 (rat, strain Wistar, females, site: mammary gland, lesion: several types, types named in the paper, dosed 104 weeks, study length 104 weeks) was 13 mg/kg/day, the TD50 (rat, strain Wistar, females, site: thyroid gland, lesion: follicular-cell adenoma, dosed 104 weeks, study length 104 weeks) was 0.645 mg/kg/day and the TD50 (rat, strain Wistar, females, site: thyroid gland, lesion: follicular-cell carcinoma, dosed 104 weeks, study length 104 weeks) was 5.2 mg/kg/day. The TD50 (rat, strain Wistar, females, site: thyroid gland, lesion: several types, types named in the paper, dosed 104 weeks, study length 104 weeks) was 0.741 mg/kg/day, the TD50 (rat, strain Wistar, males, site: adrenal gland, lesion: cortical adenoma, dosed 104 weeks, study length 104 weeks) was 9.68 mg/kg/day and the TD50 (rat, strain Wistar, males, site: all sites, lesion: lymphoma and leukemia, combined, dosed 104 weeks, study length 104 weeks) was 53.1 mg/kg/day. It also gave a TD50 (rat, strain Wistar, males, site: liver, lesion: cholangioma, dosed 104 weeks, study length 104 weeks) of 31.4 mg/kg/day, a TD50 (rat, strain Wistar, males, site: liver, lesion: hepatocellular adenoma, dosed 104 weeks, study length 104 weeks) of 24.4 mg/kg/day and a TD50 (rat, strain Wistar, males, site: liver, lesion: hepatocellular carcinoma, dosed 104 weeks, study length 104 weeks) of 53.4 mg/kg/day. For the same compound, the TD50 (rat, strain Wistar, males, site: liver, lesion: hepatocellular tumor, dosed 104 weeks, study length 104 weeks) was 17.7 mg/kg/day, the TD50 (rat, strain Wistar, males, site: lung, lesion: alveolar/bronchiolar adenoma, dosed 104 weeks, study length 104 weeks) was 23.4 mg/kg/day and the TD50 (rat, strain Wistar, males, site: pancreatic islets, lesion: islet-cell adenoma, dosed 104 weeks, study length 104 weeks) was 16 mg/kg/day. For the same compound, the TD50 (rat, strain Wistar, males, site: pancreatic islets, lesion: several types, types named in the paper, dosed 104 weeks, study length 104 weeks) was 16.6 mg/kg/day, the TD50 (rat, strain Wistar, males, site: thyroid gland, lesion: follicular-cell adenoma, dosed 104 weeks, study length 104 weeks) was 0.532 mg/kg/day and the TD50 (rat, strain Wistar, males, site: thyroid gland, lesion: follicular-cell carcinoma, dosed 104 weeks, study length 104 weeks) was 3.25 mg/kg/day. The TD50 (rat, strain Wistar, males, site: thyroid gland, lesion: several types, types named in the paper, dosed 104 weeks, study length 104 weeks) was 0.678 mg/kg/day.

`CC(O)CN(C)c1ccc(NN)nn1` (configuration not stated) was tested, and the TD50 (mouse, strain B6C3F1, females, site: liver, lesion: several types, types named in the paper, dosed 80 weeks, study length 123 weeks) was 503 mg/kg/day (inactive), the carcinogen call (mouse, strain B6C3F1, females, site: lung, lesion: several types, types named in the paper, dosed 80 weeks, study length 123 weeks) was “negative (inactive)” and the TD50 (mouse, strain B6C3F1, males, site: liver, lesion: several types, types named in the paper, dosed 80 weeks, study length 123 weeks) was 922 mg/kg/day (inactive). The carcinogen call (mouse, strain B6C3F1, males, site: lung, lesion: several types, types named in the paper, dosed 80 weeks, study length 123 weeks) was “negative (inactive)”, the TD50 (mouse, strain BALB/cLacDp, females, site: all sites, lesion: lymphoma, dosed 80 weeks, study length 123 weeks) was 408 mg/kg/day (inactive) and the carcinogen call (mouse, strain BALB/cLacDp, females, site: liver, lesion: hepatocellular adenoma, dosed 80 weeks, study length 123 weeks) was “negative (inactive)”. For the same compound, the carcinogen call (mouse, strain BALB/cLacDp, females, site: lung, lesion: several types, types named in the paper, dosed 80 weeks, study length 123 weeks) was “negative (inactive)”.
